Where only a bound is given, the exact number is not on record here.

In test [1] the target is T1, wt HIV-1 RT (Human immunodeficiency virus type 1 group M subtype B, UniProt P04585).
T1 construct: Wild type (wt) version of recombinant HIV-1 RT were expressed with a histidine tag; histidine tag; made in house; host or cells: E. coli
Put plainly: Chain elongation/termination assay. To be noted: for chain termination / full-length products, in words: HIV-PBS template, dPR primer, raising inhibitor concentration. The format is biochemical. On the procedure: RT inhibition assay. The inhibition of HIV-1 RT RNA dependent DNA polymerase activity of DXG-TP was assessed under steady-state enzymatic kinetics by employing homopolymeric RNA templates/DNA primers (T/P) and a heteropolymeric RNA template/DNA primer. The heteropolymeric RNA template contains the HIV-1 primer binding sequence, US and R regions (designated as HIV-PBS). […] The oligodeoxynucleotide primer (dPR) is an 18-mer (5′-[…]-3′) which is complementary to the HIV-1 primer binding sequence. […] Inhibition of dNTP incorporation/chain termination. […] HIV-PBS RNA template and dPR DNA primer were used in this system. The RT reactions were performed in […] containing 50 mM Tris (pH 7.8), 75 mM KCl, 10 mM MgCl2, 100 μM of dNTPs. […] The reactions were allowed to proceed at 37° C. for 60 min in the presence or absence of inhibitors. The transcribed DNA products were separated on a 5% denaturing polyacrylamide gel and visualized by exposure to X-ray film.
The chain elongation/termination assay provides a method to directly visualize the products of incorporation of dideoxynucleotide monophosphates into nascent DNA by monitoring the reaction products using polyacrylamide gel electrophoresis. The experiment was performed using wt HIV-1 RT, and HIV-PBS heteropolymeric template, and [^32p]ATP labeled dPR primer in the presence of various concentrations of RT inhibitor. […] As comparison, NNRTI nevirapine was also used in the assay.

Test [2] deals with T1, wt HIV-1 RT. Put plainly: RT inhibition assay, RNA dependent DNA polymerase activity. The format is biochemical. On the procedure: Wild type (wt) version of recombinant HIV-1 RT were expressed with a histidine tag in an E. coli protein expression system.
RT inhibition assay. The inhibition of HIV-1 RT RNA dependent DNA polymerase activity of DXG-TP was assessed under steady-state enzymatic kinetics by employing homopolymeric RNA templates/DNA primers (T/P) and a heteropolymeric RNA template/DNA primer. The heteropolymeric RNA template contains the HIV-1 primer binding sequence, US and R regions (designated as HIV-PBS). […] The oligodeoxynucleotide primer (dPR) is an 18-mer (5′-[…]-3′) which is complementary to the HIV-1 primer binding sequence. […] The reverse transcription reaction contained final concentrations of 50 mM Tris-HCl, pH 7.8, 60 mM KCl, 10 mM MgCl2, 0.1 U/ml homopolymeric T/P and 5 μM [^3H]dNTP substrate or 25 nM HIV-PBS/dPR and 5 μM each of dTTP, dCTP, dGTP and [-^32P]dATP in […]. […] Inhibition of dNTP incorporation/chain termination. The effect of DXG-TP on RT activity was also assessed using the chain termination/dNTP incorporation assay in which inhibition of nascent DNA synthesis (chain termination) was monitored based upon cDNA synthesis as previously described (Arts et al., 1993; J. Biol. Hem. 269:14672-14680 and Gu et al., 1995, Proc. Natl. Acad. Sci. USA 92:2760-2764). HIV-PBS RNA template and dPR DNA primer were used in this system. The RT reactions were performed in […] containing 50 mM Tris (pH 7.8), 75 mM KCl, 10 mM MgCl2, 100 μM of dNTPs. The HIV-PBS RNA template (50 nM) and [−^32P]-ATP labeled oligodeoxynucleotide primer (125 nM) were included in the reaction. The mixture was first denatured at 85° C. for 2 minutes, then cooled to 55° C. for 8 min, and finally cooled to 37° C. at which time recombinant HIV RT was added (42.5 nM). The reactions were allowed to proceed at 37° C. for 60 min in the presence or absence of inhibitors. The transcribed DNA products were separated on a 5% denaturing polyacrylamide gel and visualized by exposure to X-ray film.

For test [3], the system named is HIV-1IIIB. Put plainly: Anti-HIV-1 antiviral assay, laboratory strain HIV-1IIIB, RT activity in culture supernatants. To be noted: read-out: EC50, mean values ± SD; MT-2 cells; HIV-1IIIB.
Procedure: Most experiments were performed with a laboratory strain HIV-1III. […] The cells were incubated with virus using the indicated multiplicity of infection (MOI) for 2-3 hrs. The MOI used for each experiment was dependent upon the cell line and virus strain used, and was generally in the range of 0.005 to 0.5. For example, in assays performed using the established cell line MT-2, HIV-1IIIB at an MOI of 0.005 was used to infect cells. The unbound virus was then removed by washing the cells, followed by plating the cells into a 96-well plate. The infected cells were cultured in the presence of a serial concentrations of the test compound for 5-7 days. The anti-HIV-1 efficacy was determined by testing for HIV-1 RT activity in the cell culture supernatants. All assays were performed in duplicate and at least two independent experiments were performed. […] The susceptibilities of the HIV-1 variants to antiretroviral agents are expressed as the mean of the EC50 determinations.
Where [4] appears, read: template/primer HIV-PBS/dPR, substrate dNTPs, each 5 μM.
Setting [5] is: template/primer poly(rA).oligo(dT)12-18, substrate dTTP.
[6] abbreviates: template/primer poly(rC).oligo(dG)12-15, substrate dGTP.

On to `Cc1cn([C@H]2C[C@H](N=[N+]=[N-])[C@@H](COP(=O)(O)OP(=O)(O)OP(=O)(O)O)O2)c(=O)[nH]c1=O` [AZT-TP], for which the “chain termination / full-length products, in words” value in test [1] is reported as “caused increasing chain termination but decreasing full-length products”.

The IC50 is the concentration that inhibits the measured activity by half. Read a high IC50 as weaker potency. As to `Nc1nc2c(ncn2C2COC(COP(=O)(O)OP(=O)(O)OP(=O)(O)O)O2)c(=O)[nH]1` (stereo not drawn) [DXG-TP, DXG 5′-triphosphate], the “chain termination / full-length products, in words” value in test [1] is “caused increasing chain termination but decreasing full-length products”. Also, the “inhibitory effect on RT activity by band intensity, compared, in words” value in test [1] (cell-free assay) is “the same as ddGTP and AZT-TP at the same concentrations, but higher than lamivudine-TP”. In addition, the “mode of RT inhibition, in words” value in test [2] is listed as “competition with natural substrate”. In addition, the 50% inhibitory concentration (IC50) in test [2] (setting [4]) is 62 ± 7 nM; in test [2] (setting [5]) it was above 10000 nM; in test [2] (setting [6]), 12 nM.

Take `Nc1nc2c(ncn2[C@H]2CC[C@@H](COP(=O)(O)OP(=O)(O)OP(=O)(O)O)O2)c(=O)[nH]1` [ddGTP, dideoxyguanosine triphosphate, reference compound]: the half-maximal inhibitory concentration (IC50) was 74 ± 8 nM in test [2] (setting [4]) and 11 ± 0.7 nM in test [2] (setting [6]).

`Cc1cn([C@H]2CC[C@@H](COP(=O)(O)OP(=O)(O)OP(=O)(O)O)O2)c(=O)[nH]c1=O` [ddTTP, reference compound] gave a half-inhibitory concentration (IC50) in test [2] (setting [5]) of 24 ± 3 nM.

On to `Nc1ccn([C@@H]2CS[C@H](COP(=O)(O)OP(=O)(O)OP(=O)(O)O)O2)c(=O)n1` [lamivudine-TP], for which the “chain termination / full-length products, in words” value in test [1] is on record as “caused increasing chain termination but decreasing full-length products”.

The EC50 is the concentration needed to bring the measured effect to its halfway point. As for “(+) enantiomer of -D-1′,3′-dioxolane guanosine”, the EC50 in test [3] turned out to be 700 nM.

The values are drawn from US6887879B2, “Pharmaceutical combination of antiviral agents” (priority 1999, dated 2005).
